Experimental data: patent US7419969B2 (Bristol-Myers Squibb Company, priority 2004, dated 2008)

How the values were obtained:
HIV-integrase = target: T1, HIV-integrase (Human immunodeficiency virus type 1 group M subtype B, UniProt P04585); assay: in-vitro activity against HIV-integrase (HIV Integrase Inhibition, SPA bead assay); assay type: biochemical; conditions: Table 1a; recombinant integrase, activity class
T1 construct: Recombinant integrase (0.26 ng) was incubated with the beads
Outline: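 Recombinant integrase (0.26 ng) pre-bound for 90 min at 37 °C to biotinylated substrate DNA on streptavidin SPA beads, then washed. Inhibitors added with 33P-labelled target DNA; reaction stopped with 10 mM EDTA. Scintillation CPM taken as integration signal.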

Row | SMILES | IC50 (HIV-integrase) | melting point
1 | CNC(=O)c1cc(F)ccc1CNC(=O)c1nc2n(c(=O)c1O)CCCOC21CCOCC1 [Example 115, Spiro[4H-pyran-4,10′(4′H)-[6H]pyrimido[2,1-c][1,4]oxazepine]-2′-carboxamide, N-[[4-fluoro-2-[(methylamino)carbonyl]phenyl]methyl]-2,3,5,6,7′,8′-hexahydro-3′-hydroxy-4′-oxo-] | 0.001 to 0.01 µM | 211 °C (dec.)
2 | CS(=O)(=O)c1cc(F)ccc1CNC(=O)c1nc2n(c(=O)c1O)CCCOC21CCOCC1 [Example 116, Spiro[4H-pyran-4,10′(4′H)-[6H]pyrimido[2,1-c][1,4]oxazepine]-2′-carboxamide, N-[[4-fluoro-2-(methylsulfonyl)phenyl]methyl]-2,3,5,6,7′,8′-hexahydro-3′-hydroxy-4′-oxo-] | 0.01 to 0.1 µM | 257 °C (dec.)
3 | COP(=O)(OC)c1cc(F)ccc1CNC(=O)c1nc2n(c(=O)c1O)CCCOC21CCOCC1 [Example 117, Phosphonic acid, [5-fluoro-2-[[[(2,3,5,6,7′,8′-hexahydro-3′-hydroxy-4′-oxospiro[4H-pyran-4,10′(4′H) -[6H]pyrimido[2,1-c][1,4]oxazepin]-2′-yl)carbonyl]amino]methyl]phenyl]-, dimethyl ester] | 0.01 to 0.1 µM | 234 °C (dec.)
4 | O=C(NCc1ccc(F)cc1-n1cncn1)c1nc2n(c(=O)c1O)CCCOC21CCOCC1 [Example 118, Spiro[4H-pyran-4,10′(4′H)-[6H]pyrimido[2,1-c][1,4]oxazepine]-2′-carboxamide, N-[[4-fluoro-2-(1H-1,2,4-triazol-1-yl)phenyl]methyl]-2,3,5,6,7′,8′-hexahydro-3′-hydroxy-4′-oxo-] | 0.001 to 0.01 µM | 247 °C (dec.)
5 | Cc1ncn(-c2cc(F)ccc2CNC(=O)c2nc3n(c(=O)c2O)CCCOC32CCOCC2)n1 [Example 119, Spiro[4H-pyran-4,10′(4′H)-[6H]pyrimido[2,1-c][1,4]oxazepine]-2′-carboxamide, N-[[4-fluoro-2-(3-methyl-1H-1,2,4-triazol-1-yl)phenyl]methyl]-2,3,5,6,7′,8′-hexahydro-3′-hydroxy-4′-oxo-] | 0.001 to 0.01 µM | 240 °C (dec.)
6 | Cc1ncnn1-c1cc(F)ccc1CNC(=O)c1nc2n(c(=O)c1O)CCCOC21CCOCC1 [Example 120, Spiro[4H-pyran-4,10′(4′H)-[6H]pyrimido[2,1-c][1,4]oxazepine]-2′-carboxamide, N-[[4-fluoro-2-(5-methyl-1H-1,2,4-triazol-1-yl)phenyl]methyl]-2,3,5,6,7′,8′-hexahydro-3′-hydroxy-4′-oxo-] | 0.01 to 0.1 µM | 204 °C
7 | Cc1ncn(-c2ccccc2CNC(=O)c2nc3n(c(=O)c2O)CCCOC32CCOCC2)n1 [Example 121, Spiro[4H-pyran-4,10′(4′H)-[6H]pyrimido[2,1-c][1,4]oxazepine]-2′-carboxamide, 2,3,5,6,7,8′-hexahydro-3′-hydroxy-N-[[2-(3-methyl-1H-1,2,4-triazol-1-yl)phenyl]methyl]-4′-oxo-] | 0.01 to 0.1 µM | 247 °C (dec.)
8 | O=C(NCc1ccc(F)cc1-n1ccnn1)c1nc2n(c(=O)c1O)CCCOC21CCOCC1 [Example 122, Spiro[4H-pyran-4,10′(4′H)-[6H]pyrimido[2,1-c][1,4]oxazepine]-2′-carboxamide, N-[[4-fluoro-2-(1H-1,2,3-triazol-1-yl)phenyl]methyl]-2,3,5,6,7′,8′-hexahydro-3′-hydroxy-4′-oxo-] | 0.001 to 0.01 µM | 239 °C (dec.)
9 | Cc1ncn(-c2cc(F)ccc2CNC(=O)c2nc3n(c(=O)c2O)CCOC32CCCC2)n1 [Example 129, Spiro[cyclopentane-1,9′(4′H)-pyrimido[2,1-c][1,4]oxazine]-2′-carboxamide, N-[[4-fluoro-2-(3-methyl-1H-1,2,4-triazol-1-yl)phenyl]methyl]-6′,7′-dihydro-3′-hydroxy-4′-oxo-] | 0.001 to 0.01 µM | 
10 | Cc1nc(C)n(-c2cc(F)ccc2CNC(=O)c2nc3n(c(=O)c2O)CCOC32CCCC2)n1 [Example 130, Spiro[cyclopentane-1,9′(4′H)-pyrimido[2,1-c][1,4]oxazine]-2′-carboxamide, N-[[2-(3,5-dimethyl-1H-1,2,4-triazol-1-yl)-4-fluorophenyl]methyl]-6′,7′-dihydro-3′-hydroxy-4′-oxo-] | 0.001 to 0.01 µM | 
11 | O=C(NCc1ccc(F)cc1-n1cncn1)c1nc2n(c(=O)c1O)CCNC21CCC1 [Example 131] | 0.001 to 0.01 µM | 
12 | O=C(NCc1ccc(F)cc1)c1nc2n(c(=O)c1O)CCNC21CCC1 [Example 132, Spiro[cyclobutane-1,9′(6′H)-[4H]pyrazino[1,2-a]pyrimidine]-2′-carboxamide, N-[(4-fluorophenyl)methyl]-7′,8′-dihydro-3′-hydroxy-4′-oxo-] | 0.001 to 0.01 µM | 
